Assay results from publication PMC7254866 (ACS chemical biology, 2019).

Assays:
[1] = target: FpL2-6 (Faecalibacterium prausnitzii, UniProt D4K3H3); assay: Inhibition of FpL2-6 GUS; format: biochemical
[2] = target: Rh2GUS (Roseburia hominis, UniProt A0A395V8I7); assay: Inhibition of Rh2GUS; format: biochemical
[3] = target: (UniProt D5GU71); assay: Inhibition of H11G11 GUS; format: biochemical, uncultured taxon
[4] = tested on: FpL2-6, H11G11, Rg3, and Rh2 GUS enzymes; assay: Catalytic efficiency across the four regorafenib-glucuronide processing enzymes; format: biochemical; settings: 4-MUG versus regorafenib-glucuronide
[5] = tested on: gut microbial GUS enzymes in mouse fecal samples; format: in vitro ADME, mice (C57BL/6 and BALB/c)
[6] = tested on: G380M variant of FpL2-6; assay: Regorafenib-glucuronide processing by G380M variant of FpL2-6; format: biochemical, Faecalibacterium prausnitzii
[7] = tested on: gut microbial GUS enzymes in human feces; format: in vitro ADME
[8] = tested on: intestinal homogenate lysates (cecum, small intestine, large intestine); assay: Regorafenib-glucuronide conversion in intestinal homogenates of SPF mice; format: in vitro ADME, C57BL/6J mice
[9] = tested on: cecum and cecal contents of germ-free mice; assay: Regorafenib-glucuronide conversion in ceca of germ-free mice; format: in vitro ADME, germ-free C57BL/6J mice; settings: cecum and cecal contents of 5 GF mice, 48 h incubation

Chain of (UniProt D5GU71) (D5GU71 1-754): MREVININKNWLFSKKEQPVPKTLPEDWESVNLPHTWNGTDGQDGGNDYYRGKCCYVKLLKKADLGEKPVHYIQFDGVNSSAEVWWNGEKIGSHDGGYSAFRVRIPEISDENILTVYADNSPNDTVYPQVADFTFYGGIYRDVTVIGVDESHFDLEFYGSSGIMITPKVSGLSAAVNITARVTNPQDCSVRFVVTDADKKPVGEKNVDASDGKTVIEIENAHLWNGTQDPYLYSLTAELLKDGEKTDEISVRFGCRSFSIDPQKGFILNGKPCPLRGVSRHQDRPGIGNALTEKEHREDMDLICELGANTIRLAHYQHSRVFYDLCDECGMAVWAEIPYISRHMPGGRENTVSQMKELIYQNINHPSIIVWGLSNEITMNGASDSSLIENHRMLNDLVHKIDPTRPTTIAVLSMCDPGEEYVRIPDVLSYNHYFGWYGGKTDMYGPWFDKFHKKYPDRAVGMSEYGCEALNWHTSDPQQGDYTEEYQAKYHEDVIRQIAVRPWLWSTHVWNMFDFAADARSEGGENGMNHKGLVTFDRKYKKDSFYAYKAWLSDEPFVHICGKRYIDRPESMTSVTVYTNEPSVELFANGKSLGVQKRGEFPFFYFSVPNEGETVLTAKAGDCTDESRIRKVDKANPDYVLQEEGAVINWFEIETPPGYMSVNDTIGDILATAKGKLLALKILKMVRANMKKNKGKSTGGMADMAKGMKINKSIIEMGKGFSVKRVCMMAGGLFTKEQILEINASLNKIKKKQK

## O=C(c1ccc(OCCN2CCCCC2)cc1)c1c(-c2ccc(O)cc2)sc2cc(O)ccc12 [raloxifene]
[1]
  IC50: 78 ± 9 µM
[2]
  IC50: 13 ± 3 µM
[3]
  IC50: 100 ± 5 µM

## Cc1c(-c2ccc(O)cc2)n(Cc2ccc(OCCN3CCCCCC3)cc2)c2ccc(O)cc12 [bazedoxifene]
[2]; toward Rh2GUS
  potency (in words): low micromolar

## Cc1cc(=O)oc2cc(O[C@@H]3O[C@H](C(=O)O)[C@@H](O)[C@H](O)[C@H]3O)ccc12 [4-MUG, 4-methylumbelliferyl glucuronide]
[4]
  rate relative to rates with regorafenib-glucuronide: 10–100 times faster

## regorafenib-glucuronide
[5]
  conversion of regorafenib-glucuronide to regorafenib: no conversion
[6]; G380M variant versus FpL2-6 wild type
  increase in catalytic efficiency: 40 fold
[6]; substrate regorafenib-glucuronide, G380M variant of FpL2-6
  catalytic efficiency: 4560 s⁻¹ M⁻¹
[7]
  regorafenib-glucuronide reactivation: no regorafenib-glucuronide reactivation
[8]; cecal extracts of SPF mice, 48 h
  regorafenib-glucuronide converted to regorafenib: almost all
[8]; small and large intestine homogenates, after 48 h
  conversion of regorafenib-glucuronide to regorafenib: relatively little conversion
[9]
  reactivation of regorafenib from regorafenib-glucuronide: neither the cecum nor its contents were able to catalyze the reactivation
